# According to patent US20230355644A1, “ACTIVE INGREDIENTS AND DRUGS FOR THE THERAPY OF VIRAL DISEASES, ESPECIALLY CORONA INFECTIONS, ESPECIALLY COVID-19” (Creative Therapeutics GmbH, priority 2020, published 2023):
# Like-named read-outs stand apart in the source and are kept apart here.
# Experiments:
# COVID-19 = conditions: in vivo; cited from earlier work
# [1] = system: UWB1,289 ovarian cancer cells; assay: whole transcriptome sequencing (RNA-Seq) of treated ovarian cancer cells; assay type: cell-based; conditions: 24 hours; for CDKN1A transcription / DNA repair systems (MMR, BER, NER, ATM/ATR, HR) down-regulated at the transcription level / changes in the transcriptome versus non-treated controls (PCA plot, number of differentially transcribed genes) / expression of CDK family genes / CDK proteins / expression of DNA repair enzymes / transcripts of DNA repair systems: 1,000 μM compound (IV-A3) or 40 μM compound (III-A)
# HI-viruses = assay: EASY-HIT assay; assay type: cell-based
# SARS-CoV-2 [2] = assay: therapeutic effect against SARS-CoV-2 infection in mouse model; assay type: in vivo; conditions: K18-hACE2 transgenic mice; intra-peritoneal 150 mg/kg 30 minutes before and 500 mg/kg three hours after infection; two days post infection
# Procedure: Studies of the Therapeutic Effect in the Mouse Model • To investigate the therapeutic effect of compound (VI-A) against SARS-CoV-2 infection in mouse model, K18-hACE2 transgenic mice were used. The viruses used were a German isolate of SARS-CoV-2. The study was conducted as a feasibility study with two groups (test group, control group) based on six mice each, i.e. a total of 12 animals. The two groups of mice were mildly anesthetized by inhalation of 3% isoflurane and intranasally inoculated with 300 KWSIU (FFU) of SARS-CoV-2. Treatment with the compound (VI-A) was performed by intra-peritoneal injection or application. Treatment of the first group began 30 minutes before infection with a compound concentration or dosage of 150 mg/kg. In addition, three hours after infection, the test mice were administered another 500 mg/kg of the compound (dissolved in 100 μl total volume of simply concentrated PBS buffer with pH 7.4). In the second group (positive control or control group), the mice were infected equally but treated with PBS buffer alone without the addition of diphenyl derivatives or triazenes (sham treatment). Two days post infection, the animals were euthanized. The clinical score (“clinical score”), comprising the recording of weight and clinical signs, of the animals was determined. To determine the success of therapy, the viral load in the lungs was determined by qPCR.
# SARS-CoV-2 [3] = assay type: cell-based; conditions: Caco-2 cells; for decrease in viral load versus untreated cells (100%): strongest dilution 1/4000 (25 μg/ml)
# SARS-CoV-2 [4] = assay type: cell-based; conditions: Vero-E6 cells; dilutions 1/4000 to 1/500; FIGS. 3A and 3B
# [5] = dilutions 1/4000 to 1/500, FIGS. 2A and 2B
compound,measurement,setting,value
CCN(CC)CCCC(C)Nc1ccnc2cc(Cl)ccc12 (stereo not drawn) [Chloroquine],efficacy in COVID-19,COVID-19,no evidence of efficacy
CN(C)/N=N/c1ccc(C(=O)c2ccc(O)cc2)cc1 [compound (III-A)],CDKN1A transcription,[1],consistent upregulation
same,"DNA repair systems (MMR, BER, NER, ATM/ATR, HR) down-regulated at the transcription level",[1],−1.09 log 2FC
same,"changes in the transcriptome versus non-treated controls (PCA plot, number of differentially transcribed genes)",[1],sufficient change in the transcriptome
same,expression of CDK family genes / CDK proteins,[1],downregulation
same,expression of DNA repair enzymes / transcripts of DNA repair systems,[1],downregulation
CN(C)N=Nc1ccc(C(=O)c2ccc(OS(=O)(=O)[O-])cc2)cc1.[Na+] [compound (IV-A3)],CDKN1A transcription,[1],strongly induced
same,"DNA repair systems (MMR, BER, NER, ATM/ATR, HR) down-regulated at the transcription level",[1],−1.09 log 2FC
same,"changes in the transcriptome versus non-treated controls (PCA plot, number of differentially transcribed genes)",[1],more pronounced changes in the transcriptome than compound (III-A)
same,expression of CDK family genes / CDK proteins,[1],marked down regulation
same,expression of DNA repair enzymes / transcripts of DNA repair systems,[1],extensive downregulation
same,induction of CDKN1A,"[1]; 1,000 μM compound (IV-A3), genes differentially expressed in both UWB1,289 cell lines",4.49 log 2FC
same,"expression of cadherin cell adhesion molecule genes, particularly CDH6","[1]; 1,000 μM",downregulated
same,"expression of DNA dealkylation pathway proteins (APEX1, TET1, ALKBH2)","[1]; 1,000 μM, both cell lines",consistently downregulated
CN(C)/N=N/c1ccc(C(=O)c2ccc(OS(=O)(=O)O)cc2)cc1 [compound (IV-A)],inhibitory effect on HI-viruses,HI-viruses,first inhibitory effect
same,viral load in the lungs by qPCR versus positive control group,SARS-CoV-2 [2],significantly reduced viral load in the lungs
CN(C)/N=N/c1ccc(C(=O)c2ccc(O)cc2)cc1 [compound (IV-B)],decrease in viral load in treated versus untreated cells,SARS-CoV-2 [3]; [5],Particularly good results
same,decrease in viral load versus untreated cells (100%),SARS-CoV-2 [3]; FIG. 2A,50%
same,decrease in viral load versus untreated cells (100%),SARS-CoV-2 [3]; FIG. 2B,40%
same,inhibitory effect on HI-viruses,HI-viruses,first inhibitory effect
same,decrease in viral load in treated versus untreated cells,SARS-CoV-2 [4],significant decrease in viral load
same,viral load in the lungs by qPCR versus positive control group,SARS-CoV-2 [2],significantly reduced viral load in the lungs
CN(C)/N=N/c1ccc(C(=O)c2ccc(OCCC(=O)NCC(=O)O)cc2)cc1 [compound (VI-A)],inhibitory effect on HI-viruses,HI-viruses,first inhibitory effect
same,decrease in viral load in treated versus untreated cells,SARS-CoV-2 [4],significant decrease in viral load
same,histological examination of the lung tissue versus control group,SARS-CoV-2 [2],significantly reduced incidence of infection
same,viral load in the lungs by qPCR versus positive control group,SARS-CoV-2 [2],significantly lower
CN(C)/N=N/c1ccc(C(=O)c2ccc(OCCC(=O)O)cc2)cc1 [compound (VIII-A)],decrease in viral load in treated versus untreated cells,SARS-CoV-2 [3]; dilution of 1/500 (1000 μg/ml),best results in terms of viral load decrease
same,decrease in viral load in treated versus untreated cells,SARS-CoV-2 [3]; [5],Particularly good results
same,inhibitory effect on HI-viruses,HI-viruses,first inhibitory effect
same,decrease in viral load in treated versus untreated cells,SARS-CoV-2 [4],greatest decrease in viral load
same,viral load in the lungs by qPCR versus positive control group,SARS-CoV-2 [2],significantly reduced viral load in the lungs
CCN(CCO)CCCC(C)Nc1ccnc2cc(Cl)ccc12 (stereo not drawn) [hydroxychloroquine],efficacy in COVID-19,COVID-19,no evidence of efficacy
Tocilizumab: monoclonal antibody approved for the treatment of various forms of rheumatoid arthritis and cytokine release syndrome,efficacy in COVID-19,COVID-19,ineffective
